Results taken from US20110118127A1, “MARKER GENES FOR SCREENING OF DRUG-INDUCED TOXICITY IN HUMAN CELLS AND SCREENING METHOD USING THE SAME” (priority 2009, published 2011).
≈ marks a conversion by molar mass, not a printed value. Read-outs that look alike come from different tables or passages of the source.

Key:
in vitro [1] = conditions: human
JEG-3 [2] = conditions: human, 48 h
Description: (§1) Human cell lines, BEAS-2B (ATCC, USA), JEG-3 (Korean Cell Line Bank, Korea) and HK-2 (Korean Cell Line Bank, Korea) were cultured in T 75 flask containing DMEM (Gibco-BRL, USA) supplemented with 10% FBS at the concentration of 5×10^5 cells/ml. […] Those drugs were dissolved in DMSO and water. The concentration of vehicle was up to 0.1% in every experiment.
(§2) MTT assay was performed with BEAS-2B, JEG-3, HK-2, THLE-3 and HUVEC according to the method of Mossman et al (J. Immunol. Methods, 65, 55-63, 1983). The cells (Table 2) in a 24-well plate were treated with each drug dissolved in DMSO or water. 48 hours later, 5 mg/ml of MTT (3-[4,5-dimethylthiazol-2-yl]-2,5-diphenyltetra zolium bromide) was added thereto, followed by culture at 37 for 3 hours. Then, the medium was eliminated and the formed formazan crystal was dissolved in 500 μl of DMSO. The mixture was aliquoted in a 96-well plate and OD54o was measured.
(§3) MTT assay was performed with BEAS-2B, JEG-3, HK-2 and HepG2 according to the method of Mossman et al (J. Immunol. Methods, 65, 55-63, 1983). The cells (Table 2) in a 24-well plate were treated with each drug dissolved in DMSO or water. 24 and 48 hours later, 5 mg/μl of MTT (3-[4,5-dimethylthiazol-2-yl]-2,5-diphenyltetra zolium bromide) was added thereto, followed by culture at 37 for 3 hours. Then, the medium was eliminated and the formed formazan crystal was dissolved in 500 μl of DMSO. The mixture was aliquoted in a 96-well plate and OD540 was measured.

[3] = Cytotoxicity test (MTT assay) in HUVEC; format: cell-based; conditions: human, HUVEC 10 × 10^4 cells/well, survival inhibited 20%, read-out: Cytotoxicity IC20 Conc.
Description: (§4) Human cell lines, BEAS-2B (ATCC, USA), JEG-3 (Korean Cell Line Bank, Korea) and HK-2 (Korean Cell Line Bank, Korea) were cultured in T 75 flask containing DMEM (Gibco-BRL, USA) supplemented with 10% FBS at the concentration of 5×10^5 cells/ml. THLE-3 cells were cultured in BEGM (Gibco-BRL, USA) supplemented with 10% FBS. HUVEC cells (ATCC, USA) were cultured in T 75 flask containing EGM-2 (CAMBREX, USA) supplemented with 5% FBS at the concentration of 5×10^5 cells/ml. […] Those drugs were dissolved in DMSO and water. The concentration of vehicle was up to 0.1% in every experiment.
(§5) MTT assay was performed with BEAS-2B, JEG-3, HK-2, THLE-3 and HUVEC according to the method of Mossman et al (J. Immunol. Methods, 65, 55-63, 1983). The cells (Table 2) in a 24-well plate were treated with each drug dissolved in DMSO or water. […] Then, the medium was eliminated and the formed formazan crystal was dissolved in 500 μl of DMSO. The mixture was aliquoted in a 96-well plate and OD54o was measured.

[4] = Cytotoxicity test (MTT assay) in THLE-3; conditions: human
Description: as §4, §5

HepG2 = experiment: Cytotoxicity test (MTT assay) in HepG2; format: cell-based, human; conditions: Table 11; HepG2 40 × 10^4 cells/well, 48 h; read-out: Cytotoxicity IC20 Conc.
Description: (§6) The cells (Table 2) in a 24-well plate were treated with each drug dissolved in DMSO or water. 24 and 48 hours later, 5 mg/μl of MTT (3-[4,5-dimethylthiazol-2-yl]-2,5-diphenyltetra zolium bromide) was added thereto, followed by culture at 37 for 3 hours. Then, the medium was eliminated and the formed formazan crystal was dissolved in 500 μl of DMSO. The mixture was aliquoted in a 96-well plate and OD540 was measured.

in vitro [5] = conditions: human; remark: listed apart in the source
Description: as §4, §5

JEG-3 [6] = experiment: Cytotoxicity test (MTT assay) in JEG-3; conditions: Table 11; JEG-3 3 × 10^4 cells/well, 48 h
Description: as §1, §2, §3

HK-2 [7] = experiment: Cytotoxicity test (MTT assay) in HK-2; conditions: HK-2 2.3 × 10^4 cells/well, 24 h; survival inhibited 30%
Description: as §1, §2
(§7) MTT assay was performed with BEAS-2B, JEG-3, HK-2 and HepG2 according to the method of Mossman et al (J. Immunol. Methods, 65, 55-63, 1983). The cells (Table 2) in a 24-well plate were treated with each drug dissolved in DMSO or water. 24 and 48 hours later, 5 mg/μl of MTT (3-[4,5-dimethylthiazol-2-yl]-2,5-diphenyltetra zolium bromide) was added thereto, followed by culture at 37 for 3 hours. […] The mixture was aliquoted in a 96-well plate and OD540 was measured.

THLE-3 = experiment: Cytotoxicity test (MTT assay) in THLE-3; conditions: read-out: Cytotoxicity IC20 Conc.; THLE-3 3 × 10^4 cells/well, 3 h; survival inhibited 20%
Description: as §4, §5

[8] = Cytotoxicity test (MTT assay) in HepG2; format: cell-based, human; conditions: human
Description: as §6

HK-2 [9] = conditions: human, 24 h
Description: as §1, §2, §7

## CCCCc1oc2ccccc2c1C(=O)c1cc(I)c(OCCN(CC)CC)c(I)c1 [Amiodarone]
In vitro [1]
  IC20 at 48 h: 29.4 µM

## CCCC(CCC)C(=O)O [Valproic acid]
JEG-3 [2]
  Cytotoxicity IC30 Conc.: 7380 µM

## CN(Cc1cnc2nc(N)nc(N)c2n1)c1ccc(C(=O)N[C@@H](CCC(=O)O)C(=O)O)cc1 [Methotrexate]
In vitro [1]
  IC20 at 48 h: 0.144 µM
JEG-3 [2]
  Cytotoxicity IC30 Conc.: 4750 µM

## COc1cccc2c1C(=O)c1c(O)c3c(c(O)c1C2=O)C[C@@](O)(C(C)=O)C[C@@H]3O[C@H]1C[C@H](N)[C@H](O)[C@H](C)O1 [Daunorubicin]
[3]
  IC20 at 48 h: 0.191 µg/mL (≈ 0.362 µM)

## O=C1CN(/N=C/c2ccc([N+](=O)[O-])o2)C(=O)N1 [Nitrofurantoin]
In vitro [1]
  IC20 at 48 h: 89.5 µM

## CN(N=O)C(N)=O [N-nitroso-N-methylurea]
[4]
  IC20 at 3 h: 2090 µM

## CC(=O)Nc1ccc(O)cc1 [Acetaminophene]
HepG2
  IC20: 11000 µM

## O=[N+]([O-])c1ccc2c(c1)Cc1ccccc1-2 [2-nitrofluorene]
In vitro [5]
  IC20 at 3 h: 80.8 µM

## O=[N+]([O-])c1cc[n+]([O-])c2ccccc12 [4-nitroquinoline-N-oxide]
[4]
  IC20 at 3 h: 0.83 µM

## CC(=O)CC(c1ccccc1)c1c(O)c2ccccc2oc1=O (stereo not shown) [Warfarin]
JEG-3 [6]
  Cytotoxicity IC30 Conc.: 8160 µM

## Gentamycin
HK-2 [7]
  Cytotoxicity IC30 Conc.: 3440 µg/mL

## NC(=O)/C(=C\c1ccc([N+](=O)[O-])o1)c1ccco1 [Furylfuramide]
THLE-3
  IC20: 243 µM

## c1ccc2c(c1)cc1ccc3cccc4ccc2c1c34 [Benzo(a)pyrene]
[8]
  IC20 at 48 h: 8.35 µM

## COc1cccc2c1C(=O)c1c(O)c3c(c(O)c1C2=O)C[C@@](O)(C(=O)CO)C[C@@H]3O[C@H]1C[C@H](N)[C@H](O)[C@H](C)O1 [Doxorubicin]
[3]
  IC20 at 48 h: 0.083 µg/mL (≈ 0.153 µM)

## NC(=O)N1c2ccccc2C=Cc2ccccc21 [Carbamazepine]
In vitro [1]
  IC20 at 48 h: 324 µM

## CC(C)Cc1ccc(C(C)C(=O)O)cc1 (stereo not shown) [Ibuprofen]
HK-2 [9]
  Cytotoxicity IC30 Conc.: 1650 µg/mL

## COS(C)(=O)=O [Methylmethanesulfonate, methylmethanesulfonate]
In vitro [5]
  IC20 at 3 h: 510 µM

## O=C1CCC(N2C(=O)c3ccccc3C2=O)C(=O)N1 (stereo not shown) [Thalidomide]
JEG-3 [2]
  Cytotoxicity IC30 Conc.: 4283 µM
